Assay results reported in patent publication US20210386069A1 (priority 2018, published 2021).

Assay: log P by HPLC on a reversed-phase column (C 18), EEC Directive 79/831 Annex V.A8
Format: physicochemical
Conditions: HPLC reversed-phase C 18, 40° C., 0.1% aqueous formic acid and acetonitrile, linear gradient 10% to 95% acetonitrile
Experimental: In table 1, the log P values were determined in accordance with EEC Directive 79/831 Annex V.A8 by HPLC (High Performance Liquid Chromatography) on a reversed-phase column (C 18), using the method described below:
temperature: 40° C.; mobile phases: 0.1% aqueous formic acid and acetonitrile; linear gradient from 10% acetonitrile to 95% acetonitrile;
If more than one Log P value is available within the same method, all the values are given and separated by “;”.
Calibration was carried out using unbranched alkan-2-ones (comprising 3 to 16 carbon atoms) with known log P values (determination of the log P values by the retention times using linear interpolation between two successive alkanones). lambda-max-values were determined using UV-spectra from 200 nm to 400 nm and the peak values of the chromatographic signals.

| SMILES | logP |
| --- | --- |
| Cc1cc(-c2ccccc2Nc2cc3ccc(F)c(F)c3nc2C)cnc1F [I.031] | 3.69 |
| COc1ncc(-c2c(F)cccc2Cc2cc3ccc(F)c(F)c3nc2C)cn1 [I.078] | 3.25 |
| Cc1nc2ccccc2nc1Nc1cccc(F)c1-c1ccncc1F [I.002] | 2.57 |
| Cc1nc2c(F)c(F)ccc2cc1Nc1ccccc1-c1cccnc1Cl [I.038] | 3.43 |
| Cc1nc2c(F)c(F)ccc2cc1Nc1ccccc1-c1ccncc1C1CC1 [I.058] | 2.12 |
| CCc1ncccc1-c1ccccc1Nc1cc2ccc(F)c(F)c2nc1C [I.024] | 2.03 |
| CCc1cnccc1-c1ccccc1Nc1cc2ccc(F)c(F)c2nc1C [I.022] | 2.08 |
| COc1c(-c2ccccc2Nc2cc3ccc(F)c(F)c3nc2C)ccnc1F [I.079] | 3.72 |
| Cc1nc2c(F)c(F)ccc2nc1Cc1cccc(F)c1-c1ccncc1F [I.050] | 3.31 |
| Cc1nc2c(F)c(F)ccc2cc1Cc1cccc(F)c1-c1cccnc1F [I.043] | 3.55 |
| CSc1ncccc1-c1ccccc1Nc1cc2ccc(F)c(F)c2nc1C [I.072] | 4.08 |
| Cc1cnc(Cl)c(-c2ccccc2Nc2cc3ccc(F)c(F)c3nc2C)c1 [I.084] | 3.69 |
| CSc1ccc(-c2ccccc2Nc2cc3ccc(F)c(F)c3nc2C)cn1 [I.071] | 3.81 |
| Cc1cc(-c2ccccc2Nc2cc3ccc(F)c(F)c3nc2C)ccn1 [I.005] | 1.75 |
| Cc1nc2c(F)c(F)ccc2cc1Nc1cccc(F)c1-c1cc(Cl)ncc1F [I.126] | 3.98 |
| Cc1nc2c(F)c(F)ccc2cc1Nc1cccc(F)c1-c1cccnc1Cl [I.094] | 3.50 |
| Cc1nc2c(F)c(F)ccc2cc1Nc1ccccc1-c1cncc(C#N)c1 [I.020] | 3.04 |
| Cc1nc2c(F)c(F)ccc2cc1Cc1cccc(F)c1-c1cncnc1 [I.011] | 2.76 |
| CCOc1ccc(-c2ccccc2Nc2cc3ccc(F)c(F)c3nc2C)cn1 [I.065] | 4.02 |
| CCCc1cnccc1-c1c(F)cccc1Nc1cc2ccc(F)c(F)c2nc1C [I.110] | 2.89 |
| Cc1cncc(-c2c(F)cccc2Nc2cc3ccc(F)c(F)c3nc2C)c1 [I.032] | 2.26 |
| Cc1nc2c(F)c(F)ccc2cc1Nc1ccccc1-c1ccnc(F)c1F [I.053] | 3.69 |
| Cc1nc2c(F)c(F)ccc2cc1Nc1cccc(F)c1-c1cncc(C(F)(F)F)c1 [I.133] | 3.75 |

| SMILES | logP |
| --- | --- |
| Cc1nc2c(F)c(F)ccc2cc1Nc1cccc(F)c1-c1cncnc1 [I.013] | 2.61 |
| Cc1nc2c(F)c(F)ccc2cc1Nc1cccc(F)c1-c1ccncc1Cl [I.093] | 3.46 |
| Cc1cc(-c2ccccc2Nc2cc3ccc(F)c(F)c3nc2C)cnc1Cl [I.087] | 3.91 |
| Cc1nc2c(F)c(F)ccc2cc1Nc1ccccc1-c1ccc(Cl)nc1 [I.037] | 3.62 |
| COc1ccncc1-c1ccccc1Nc1cc2ccc(F)c(F)c2nc1C [I.030] | 1.77 |
| Cc1nc2c(F)cccc2cc1Nc1cc(F)ccc1-c1ccncc1F [I.012] | 2.95 |
| Cc1nc2c(F)c(F)ccc2cc1Nc1cccc(F)c1-c1ccncc1C1CC1 [I.106] | 2.49 |
| Cc1nc2c(F)c(F)ccc2cc1Cc1cccc(F)c1-c1ccncc1 [I.007] | 2.00 |
| COc1ncccc1-c1c(F)cccc1Cc1cc2ccc(F)c(F)c2nc1C [I.075] | 3.79 |
| Cc1nc2c(F)cccc2nc1Nc1cccc(F)c1-c1ccncc1F [I.015] | 2.67 |
| COc1ccc(-c2c(F)cccc2Cc2cc3ccc(F)c(F)c3nc2C)cn1 [I.073] | 3.99 |
| Cc1nc2c(F)c(F)ccc2cc1Nc1ccccc1-c1ccnc(F)c1Cl [I.096] | 3.91 |
| Cc1nc2c(F)c(F)ccc2cc1Nc1cccc(F)c1-c1ccc(C(F)(F)F)nc1 [I.134] | 3.94 |
| Cc1cncc(C)c1-c1ccccc1Nc1cc2ccc(F)c(F)c2nc1C [I.025] | 2.05 |
| Cc1nc2c(F)c(F)ccc2cc1Cc1cccnc1-c1ccnc(F)c1 [I.137] | 2.52 |
| Cc1nc2c(F)c(F)ccc2cc1Cc1cccc(F)c1-c1cccnc1 [I.008] | 2.64 |
| Cc1nc2c(F)c(F)ccc2cc1Nc1cccc(F)c1-c1ccc(Cl)nc1C [I.120] | 4.01 |
| Cc1nc2c(F)c(F)ccc2cc1Nc1ccccc1-c1ccc(Cl)nc1C [I.085] | 3.94 |
| COc1cnccc1-c1ccccc1Nc1cc2ccc(F)c(F)c2nc1C [I.027] | 2.14 |
| Cc1nc2c(F)c(F)ccc2cc1Nc1cccc(F)c1-c1ccncc1F [I.051] | 3.29 |
| Cc1nc2c(F)c(F)ccc2cc1Nc1cccc(F)c1-c1cccnc1C1CC1 [I.105] | 3.25 |
| CCOc1ncccc1-c1c(F)cccc1Nc1cc2ccc(F)c(F)c2nc1C [I.113] | 4.13 |
| CCCc1ccncc1-c1c(F)cccc1Nc1cc2ccc(F)c(F)c2nc1C [I.111] | 2.75 |

| SMILES | logP |
| --- | --- |
| COc1ncc(-c2c(F)cccc2Nc2cc3ccc(F)c(F)c3nc2C)cn1 [I.088] | 3.08 |
| Cc1nc2c(F)c(F)ccc2cc1Nc1ccc(F)cc1-c1ccncc1F [I.049] | 3.24 |
| COc1c(-c2c(F)cccc2Nc2cc3ccc(F)c(F)c3nc2C)ccnc1F [I.117] | 3.75 |
| CCCc1cnccc1-c1ccccc1Nc1cc2ccc(F)c(F)c2nc1C [I.061] | 2.31 |
| Cc1nc2c(F)c(F)ccc2cc1Nc1cccc(F)c1-c1ccnc(F)c1Cl [I.129] | 3.98 |
| Cc1nc2c(F)c(F)ccc2cc1Nc1cccc(F)c1-c1cccnc1F [I.047] | 3.35 |
| Cc1ccncc1-c1ccccc1Nc1cc2ccc(F)c(F)c2nc1C [I.006] | 1.86 |
| Cc1nc2c(F)c(F)ccc2cc1Nc1cccc(F)c1-c1cc(F)nc(F)c1 [I.100] | 3.98 |
| Cc1nc2c(F)c(F)ccc2cc1Nc1cccc(F)c1-c1ccc(Cl)nc1 [I.092] | 3.72 |
| Cc1nc2c(F)c(F)ccc2cc1Nc1cccc(F)c1-c1ccnc(F)c1 [I.046] | 3.46 |
| COc1ccc(-c2ccccc2Nc2cc3ccc(F)c(F)c3nc2C)c(OC)n1 [I.108] | 4.62 |
| Cc1nc2c(F)c(F)ccc2cc1Nc1cccc(F)c1-c1cc(F)cnc1F [I.136] | 3.71 |
| Cc1cncc(-c2ccccc2Nc2cc3ccc(F)c(F)c3nc2C)c1 [I.004] | 1.99 |
| Cc1nc2c(F)c(F)ccc2cc1Nc1ccccc1-c1cncc(F)c1Cl [I.090] | 3.62 |
| Cc1nc2c(F)c(F)ccc2cc1Nc1ccccc1-c1cnccc1C1CC1 [I.057] | 2.05 |
| COc1cc(-c2ccccc2Nc2cc3ccc(F)c(F)c3nc2C)c(Br)cn1 [I.135] | 4.36 |
| Cc1nc2c(F)c(F)ccc2cc1Cc1cccc(F)c1C1=CCCCO1 [I.017] | 4.41 |
| Cc1nc2c(F)c(F)ccc2cc1Nc1ccccc1-c1cc(Cl)cnc1Cl [I.124] | 4.13 |
| Cc1nc2c(F)c(F)ccc2cc1Nc1cccc(F)c1-c1ccc(OC(C)C)nc1 [I.130] | 4.47 |
| Cc1nc2c(F)c(F)ccc2cc1Nc1cccc(F)c1-c1ccc(F)nc1 [I.045] | 3.46 |
| COc1cccc(-c2c(F)cccc2Cc2cc3ccc(F)c(F)c3nc2C)n1 [I.074] | 3.79 |

Same assay, conditions: reversed-phase HPLC column (C 18); preparation examples; log P as defined in table 1 (HPLC, 0.1% aqueous formic acid/acetonitrile)

| SMILES | chromatographic logP |
| --- | --- |
| Cc1nc2c(F)c(F)ccc2cc1Cc1cccc(F)c1-c1ccc(F)nc1 [I.042, 7,8-difluoro-3-[3-fluoro-2-(6-fluoropyridin-3-yl)benzyl]-2-methylquinoline] | 3.7 |
| ClCc1cscc1Br [3-bromo-4-(chloromethyl)thiophene] | 2.99 |
| Cc1nc2c(F)c(F)ccc2cc1Nc1cccc(F)c1-c1cnccc1C1CC1 [I.104, N-[2-(4-cyclopropylpyridin-3-yl)-3-fluorophenyl]-7,8-difluoro-2-methylquinolin-3-amine] | 2.12 |
| Cc1nc2c(F)c(F)ccc2cc1Cc1cscc1Br [3-[(4-bromo-3-thienyl)methyl]-7,8-difluoro-2-methylquinoline] | 4.01 |
